Experiment [1] concerns the target T1, BTK (Homo sapiens (Human), UniProt Q06187). Nature of the experiment: In Vitro BTK Kinase Assay: BTK-POLYGAT-LS ASSAY. The experiment is classed as biochemical. The note with it: fluorescein-labeled polyGAT peptide 100 nM, BTK enzyme 0.25 nM, 30 minutes, TRF. The method, boiled down:
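ATP […] and polyGAT peptide (100 nM), final concentrations, in Tris-HCl pH 7.5 kinase buffer with MgCl2, DTT, Triton X-100 and casein. Reaction run 30 min, stopped with EDTA, then 45 min at room temperature.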

Experiment [2] has as its target T1, BTK. Nature of the experiment: In Vitro PD Assay in Human Whole Blood (pBTK assay). The following applies: human heparinized whole blood, 37° C. for 30 min, total BTK capture and phosphotyrosine detection (ECL). Type of experiment: cell-based. In outline: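 Heparinized human venous whole blood spiked with serially diluted compound (0.1% DMSO final) and incubated 30 min at 37° C. Lysed with protease/phosphatase inhibitors (high control +PPi, low control −PPi lacking phosphatase inhibitors); total BTK captured and phosphotyrosine detected.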

T1 sequence (Q06187 whole entry): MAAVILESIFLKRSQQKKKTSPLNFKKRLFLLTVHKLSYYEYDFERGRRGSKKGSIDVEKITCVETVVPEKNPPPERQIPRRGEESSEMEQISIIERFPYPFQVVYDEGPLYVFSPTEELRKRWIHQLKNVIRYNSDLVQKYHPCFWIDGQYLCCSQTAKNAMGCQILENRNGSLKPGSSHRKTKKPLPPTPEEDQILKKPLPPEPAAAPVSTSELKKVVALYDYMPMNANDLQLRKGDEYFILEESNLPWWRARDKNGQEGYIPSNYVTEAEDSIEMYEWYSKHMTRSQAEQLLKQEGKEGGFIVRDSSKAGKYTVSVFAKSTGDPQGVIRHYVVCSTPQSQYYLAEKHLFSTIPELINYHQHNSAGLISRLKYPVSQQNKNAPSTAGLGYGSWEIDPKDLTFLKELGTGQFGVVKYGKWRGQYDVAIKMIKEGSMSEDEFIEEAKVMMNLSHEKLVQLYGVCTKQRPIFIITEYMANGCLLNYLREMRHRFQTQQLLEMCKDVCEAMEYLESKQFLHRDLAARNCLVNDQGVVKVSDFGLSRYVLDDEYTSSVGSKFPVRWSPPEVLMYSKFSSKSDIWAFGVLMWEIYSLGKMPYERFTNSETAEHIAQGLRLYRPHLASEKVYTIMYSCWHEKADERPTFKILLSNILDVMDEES

In general, IC50 refers to the point on the concentration scale where inhibition reaches its midpoint. Turning to `Cc1cc(-c2ncnc(Nc3cnn(C)c3)n2)c(F)cc1CNC(=O)c1noc(C2(C)CC2)n1` [Compound 59, N-(5-fluoro-2-methyl-4-(4-((1-methyl-1H-pyrazol-4-yl)amino)-1,3,5-triazin-2-yl)benzyl)-5-(1-methylcyclopropyl)-1,2,4-oxadiazole-3-carboxamide], the IC50 at BTK [1] is < 1 nM; against BTK [2] it was 100 to 500 nM.

With `Cc1c(CNC(=O)c2noc(C(C)(C)CF)n2)ccc(-c2ncnc(Nc3ccn(C)n3)n2)c1F` [Compound 45, N-(3-fluoro-2-methyl-4-(4-((1-methyl-1H-pyrazol-3-yl)amino)-1,3,5-triazin-2-yl)benzyl)-5-(1-fluoro-2-methylpropan-2-yl)-1,2,4-oxadiazole-3-carboxamide], the IC50 against BTK [1] was < 1 nM; against BTK [2], 100 to 500 nM.

`C[C@@H](NC(=O)c1noc(C(C)(C)C)n1)c1ccc(-c2ncnc(Nc3ccn(C)n3)n2)c(F)c1Cl` [Compound 101, (R)-5-(tert-butyl)-N-(1-(2-chloro-3-fluoro-4-(4-((1-methyl-1H-pyrazol-3-yl)amino)-1,3,5-triazin-2-yl)phenyl)ethyl)-1,2,4-oxadiazole-3-carboxamide]: the results for the IC50 at BTK [1] and at BTK [2] were < 1 nM and 500 to 10000 nM, respectively.

With `Cc1c(-c2ncnc(Nc3ccn(C)n3)n2)ccc([C@@H](C)NC(=O)c2noc(C(C)(C)C)n2)c1Cl` [Compound 79, (R)-5-(tert-butyl)-N-(1-(2-chloro-3-methyl-4-(4-((1-methyl-1H-pyrazol-3-yl)amino)-1,3,5-triazin-2-yl)phenyl)ethyl)-1,2,4-oxadiazole-3-carboxamide], the IC50 on BTK [1] was in the range of 1 to 10 nM; at BTK [2] it was 500 to 10000 nM.

With `Cn1ccc(Nc2ncnc(-c3ccc4c(c3)CCCC[C@H]4NC(=O)c3noc(C(C)(C)CF)n3)n2)n1` [Compound 53, (R)-5-(1-fluoro-2-methylpropan-2-yl)-N-(2-(4-((1-methyl-1H-pyrazol-3-yl)amino)-1,3,5-triazin-2-yl)-6,7,8,9-tetrahydro-5H-benzo[7]annulen-5-yl)-1,2,4-oxadiazole-3-carboxamide], the IC50 is < 1 nM against BTK [1] and 100 to 500 nM at BTK [2].

For the molecule `Cc1c(CNC(=O)c2noc(C(C)(C)C)n2)ccc(-c2ncnc(Nc3cnn(C)c3)n2)c1F` [Compound 13, 5-(tert-butyl)-N-(3-fluoro-2-methyl-4-(4-((1-methyl-1H-pyrazol-4-yl)amino)-1,3,5-triazin-2-yl)benzyl)-1,2,4-oxadiazole-3-carboxamide], the IC50 against BTK [1] is < 1 nM; on BTK [2], < 100 nM.

Values taken from patent publication US10899753B2, “Inhibiting agents for Bruton's tyrosine kinase” (BIOGEN MA INC., priority 2018, dated 2021).
